Measured values: patent US20250375471A1, “HEPARANASE INHIBITORS AND METHODS OF USE” (The Board of Regents of the University of Oklahoma, priority 2022, published 2025)
Entries after “also recorded” stand apart in the source; their conditions may differ.

Columns and labels:
[1] = background; cited from earlier work
[2] = target: T1, HIT antibody complex (Platelet Factor 4 and antibody) (Homo sapiens, UniProt P02776)
T1 sequence (P02776 32-101): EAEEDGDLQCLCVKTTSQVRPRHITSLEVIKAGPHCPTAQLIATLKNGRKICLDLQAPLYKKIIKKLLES
Experimental: ELISA methodology was used to measure the bound antibody as measured by absorbance (at 415 nm) of the product derived from a chromogenic substrate by the enzyme on the secondary antibody probe. […] Heparin derivatives treated to reduce their anticoagulant activity (non-anticoagulant heparin (NACH) or Roneparstat (Rone)) were also tested in the HIT assay.

[3] = target: T2, Recombinant human heparanase (Homo sapiens, UniProt Q9Y251); experiment: Heparanase challenge (PAGE, Stains-All detection); format: biochemical; settings: heparanase 73 ng, sTestan 180 ng, 24 hours, pH 5, 30° C.
T2 construct: purchased R&D Systems; Minneapolis, MN
T2 sequence (Q9Y251 158-543 limits assumed): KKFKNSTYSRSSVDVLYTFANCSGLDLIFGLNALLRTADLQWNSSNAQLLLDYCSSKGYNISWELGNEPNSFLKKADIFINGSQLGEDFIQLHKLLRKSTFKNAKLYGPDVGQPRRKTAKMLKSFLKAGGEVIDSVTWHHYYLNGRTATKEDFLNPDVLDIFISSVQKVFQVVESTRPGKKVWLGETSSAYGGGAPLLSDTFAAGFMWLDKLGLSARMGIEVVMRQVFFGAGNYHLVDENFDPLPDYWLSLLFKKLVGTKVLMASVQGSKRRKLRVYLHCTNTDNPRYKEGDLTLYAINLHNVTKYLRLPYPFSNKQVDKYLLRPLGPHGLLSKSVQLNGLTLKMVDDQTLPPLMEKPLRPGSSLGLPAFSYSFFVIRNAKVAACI
T2 sequence (Q9Y251 36-109 limits assumed): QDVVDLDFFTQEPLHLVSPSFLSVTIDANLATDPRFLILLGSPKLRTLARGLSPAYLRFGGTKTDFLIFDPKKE
Experimental: The reactions were analyzed by polyacrylamide gel electrophoresis (20% gels, 1×TBE) and Stains-All detection.

[4] = target: T2, Recombinant human heparanase; experiment: Gel-based heparanase enzyme inhibition assay, fluorescent synthetic O-sulfated heparosan substrate; format: biochemical
Source text: (§1) A gel-based assay was used to monitor the catalytic action of recombinant human heparanase (R&D Systems; Minneapolis, MN) on polysaccharide substrates. In these assays, fluorescent chains were monitored for cleavage; the disappearance of the parental substrate band is readily noticeable. Each chain contains multiple, overlapping heparanase cut sites so there is a gradual decrease in molecular weight over time. This simple, defined assay directly monitors the digestion of polysaccharides (i.e., glycans>˜20 monosaccharide units) that approximate naturally occurring substrates.
(§2) Two types of substrates were employed to follow heparanase activity: (i) a fluorescein end-labeled synthetic O-sulfated O-linked heparosan or (ii) polyacrylamide gel electrophoretically-purified rhodamine-tagged HS. Heparanase (1.3 ng/μl final) was incubated with substrate (synthetic, 57 ng/μl; HS, 3.3 ng/μl) for various times (typically ˜0.2-5 h) in 50 mM sodium acetate, pH 5, 1 mg/ml acetylated bovine serum albumin (Promega; Madison, WI) at 30° C. Aliquots of reactions were analyzed by polyacrylamide gel electrophoresis (2 μl of reaction/lane; 20% gels, 1×TBE) and fluorescence imaging (5-120 sec exposures; ChemiDoc MP). Then the overall size range of the polysaccharide fragments was followed by Stains-All detection.

[5] = target: T2, Recombinant human heparanase; experiment: Gel-based heparanase enzyme inhibition assay, natural heparan sulfate (HS) substrate; format: biochemical; settings: various substrate to inhibitor ratios, 30 min time-point
Source text: as §1, §2

CC(C)CCC[C@@H](C)[C@H]1CC[C@H]2[C@@H]3CC[C@H]4C[C@@H](O[C@@H]5O[C@H](COS(=O)(=O)O)[C@@H](O[C@H]6O[C@H](COS(=O)(=O)O)[C@@H](O[C@H]7O[C@H](COS(=O)(=O)O)[C@@H](O[C@H]8O[C@H](COS(=O)(=O)O)[C@@H](OS(=O)(=O)O)[C@H](OS(=O)(=O)O)[C@H]8OS(=O)(=O)O)[C@H](OS(=O)(=O)O)[C@H]7OS(=O)(=O)O)[C@H](OS(=O)(=O)O)[C@H]6OS(=O)(=O)O)[C@H](OS(=O)(=O)O)[C@H]5OS(=O)(=O)O)CC[C@]4(C)[C@H]3CC[C@]12C [PG545]
cell toxicity [1]: lacks significant anticoagulant activity and cell toxicity

Roneparstat
HIT complex reactivity (competition with plate-bound heparin) [2]: less reactive

heparin
HIT complex reactivity (competition with plate-bound heparin) [2]: competed well

sulfated or sulfonated testosteronan [sTestan]
digestion/cleavage by human heparanase [3]: recalcitrant to the action of heparanase; also recorded: recalcitrant to digestion by heparanase | fold more active on a molar basis than the heparosan substrate [4]: ≥ 100 fold | heparanase inhibitor potency compared with generic Roneparstat ([4]; FIG. 7): similarly potent; also recorded: potent competitive inhibitor of human heparanase similar to a known heparanase inhibitor | inhibition of heparanase cleavage of fluorescent sulfo-O-linked heparosan substrate ([4]; titration of inhibitor, 15-min time point, PAGE): inhibited the digestion of the substrate; also recorded: competitive inhibitor of heparanase | inhibition of heparanase digestion of natural HS substrate [5]: protecting natural HS from human heparanase digestion
